From publication PMC9965125, “New NSAID Conjugates as Potent and Selective COX-2 Inhibitors: Synthesis, Molecular Modeling and Biological Investigation” (Molecules, 2023)
Several values for one entry are separate records, joined by “and”; a condition that tells them apart may be missing. Identical values can stand only once.

What was measured:
[1] = system: carrageenan induced paw edema; test: carrageenan-induced rat paw edema; format: in vivo; settings: 10 mg/kg indomethacin mol equivalent i.p.; for Mean Edema Thickness: ± standard error
Procedure: Anti-inflammatory activity screening
The anti-inflammatory activity of the tested compounds was determined in-vivo by the acute carrageenan induced paw edema standard method in rats. Adult Wister rats of either sex (pregnant female animals were excluded) weighing 120–150 g were divided into 19 groups of 6 animals each. The tested compounds dissolved in DMSO, at a dose of 10 mg kg-1 (rat body […]
inflammation. The control group was given DMSO only. Paw edema was induced by subcutaneous injection of freshly prepared 1% solution of carrageenan in saline (0.9%, 0.1 ml per rat) into subplantar tissue of the right hind paw of rats. The thickness of the paw was measured (in mm) after successive time intervals (1, 2, 3, 4 and 24 h) and compared with the initial hind paw thickness of each rat for determining the edema thickness. Data were collected, checked, revised and analyzed (SPSS 16). Quantitative variables from normal distribution were expressed as means ± SE “standard error”. The anti-inflammatory activity was expressed as percentage inhibition of edema thickness in treated animals in comparison with the control group according to eqn. (1) […]
% Inhibition of edema= Vc-Vt x 100 … .. (1)
Where, Vc and Vt are the means of edema paw thickness for the control and tested compound treated animal groups, respectively.
The potency of the tested compounds was expressed as % inhibition of edema thickness […]
% Potency = % inhibition of edema for the tested compound treated group x 100 … . (2)

[2] = system: acetic acid-induced abdominal writhing; test: acetic acid-induced abdominal writhing assay (peripheral analgesic); format: in vivo, mice; settings: 10 mg/kg indomethacin mol equivalent i.p.; for Writing Reflex ± SE: number of writhing counted for 30 min
Procedure: Peripheral analgesic testing
Peripheral analgesic activity was measured by the standard acetic acid-induced writhing […]
One hour after intraperitoneally (i,p.) administration of 10 mg kg−1 (mice body weight) […]
distilled/sterile water by the aid of two drops of Tween 80, each mouse was injected with 0.1 ml of 1% acetic acid solution i.p. The control group animals were given sterile/distilled water only with few drops of Tween 80. Starting 5 min after the acetic acid injection, the number of muscular contractions in each mouse was counted for 30 min. A significant reduction in the number of writhing by any test compound as compared to control animals was considered as a positive analgesic response. Percentage protection was calculated according to equ. (3), where n stands for the average number of writhing in the control group and n' is the average number of writhing in the treated group. The % potency was calculated by equ. (4) (Table 2).
% Inhibition/protection = n−n′ x100 … . (3)

hot plate latency = test: hot plate assay (central analgesic); format: in vivo, mice; settings: 10 mg/kg indomethacin mol equivalent i.p.; for Latency Period ± SE: cutoff 15 sec
Procedure: The % potency was calculated by equ. (4) (Table 2). […]
% Potency = % protection of the tested compound x 100 ……. (4) […]
Central analgesic (hot plate) testing
The standard hot plate technique was undertaken by in vivo standard hot plate test [ 1,2]. […]
by placing them on a hot plate maintained at 55 ± 1 °C, 30 min. […]
suspended in sterile/distilled water by the ai d of two drops of Tween 80, and recording the reaction time in seconds for forepaw licking or jumping. The control group animals were given sterile/distilled water only with few drops of Tween 80. The maximum cutoff time was chosen as 15 sec. to prevent tissue damage. Response latencies were measured 30, 60, 90 and 120 min. after the application. The % protection was calculated by equ. ( 5) where, T1, T0 are the latency time mean of the tested compound and control group, respectively (Table 3).

gastric mucosa = settings: both, albino, mouse, in vivo, 3 days; for % Incidence of Ulcer Divided by 10 / Average Severity of Ulcer / Average of Ulcer Number / Number of Animals with Ulcer: po, 10 mg/kg
Procedure: The ulcerogenic liability was determined in albino mice obeying the standard method.
Animals of either sex (pregnant females were excluded) weighing 20 –25 g were divided into 8 groups of 6 animals each. The animals fasted 18 h before drug administration.
80 administered orally for three successive days to fasted animals at a dose of 10 mg kg-1 (animal […]
The control group animals were given water only with few drops of Tween 80. The animals were sacrificed by cervical dislocation and the stomach was removed, opened along the greater curvature and rinsed with saline. The gastric mucosa was examined with a magnifying lens (10x) for the presence of lesions and ero sions. The ulcer index was calculated (Table 4) and the degree of ulcerogenic effect was expressed in terms of.
1. The percentage incidence of ulcers divided by 10.
2. Average number of ulcers per stomach.
3. Average severity of ulcers.
The ulcer index is the value that resulted from the sum of the above three values. […]

mice = test: toxicological bioassay; format: in vivo; settings: five times the anti-inflammatory dose (50 mg/kg indomethacin mol equivalent); recorded 24 h post-administration
Procedure: Five times the anti-inflammatory dose was orally administrated. […]
5a, 5b, 5d, 5e) was determined utilizing the standard method in mice. Albino mice weighing 20–25 g were divided into 6 groups of 6 mice each. Administrations of the tested compounds dissolved in distilled water by the aid of few drops of Tween 80 were given intraperitoneally in 50 […]
inflammatory dosage). The control group was given water only with few drops of Tween 80. The toxic symptoms and mortality rates were recorded 24 h post -administration in each group.

[3] = system: LPS-stimulated RAW264.7 macrophages; test: NO production of LPS-induced RAW264.7 (Griess method); format: cell-based; settings: 40 μg/mL; LPS 10 ng/mL; LPS only 22 μM, baseline 12.8 μM
IL-6 mRNA = settings: 40 μg/mL; in comparison to LPS-stimulated cells only
Procedure: (§1) For this purpose, the mRNA levels of IL-6, TNF-α, and iNOS were measured using real-time qPCR (RT-qPCR).
(§2) Treatment of LPS-stimulated RAW264.7 macrophages was done with 40 µg/mL of the isolated
(§3) Evaluation of inflammatory mRNA expression levels
(§4) Inflammatory mRNA expression levels were evaluated using RT-qPCR (Applied Biosystems, CA, USA). Total RNA was extracted by lysing RAW264.7 cells using Qiazol Lysis Reagent. The extracted RNA was used to synthesize cDNA using RevertAid First Strand cDNA synthesis kit according to manufacturer’s protocol. The cDNA was then added with forward and reverse
(§5) primers, nuclease free water and maxima SYBR green mix (Thermo Fisher Scientific, MA, USA).
(§6) The inflammation-related genes of mRNA expression levels are as follows: IL-6, TNF-α, and
(§7) iNOS. All expression was normalized to GAPDH (endogenous control) and relative fold mRNA
(§8) expression levels were calculated using the comparative 2 −ΔΔCT method. The PCR reaction consists
(§9) of initiation stage at 95 °C for 10 min, after that 40 PCR cycles of d enaturation stage for 15 s at 95
(§10) °C and annealing and extension for 1 min at 60 °C.

iNOS mRNA = settings: 40 μg/mL; in comparison to LPS-stimulated cells only
Procedure: as §1, §2, §3, §4, §5, §6, §7, §8, §9, §10

TNF-α mRNA = settings: 40 μg/mL; in comparison to LPS-stimulated cells only
Procedure: as §1, §2, §3, §4, §5, §6, §7, §8, §9, §10

SMILES: CC(C)Cc1ccc(C(C)C(=O)OCc2cn(-c3ccccc3Cl)nn2)cc1 (stereo not shown) [Compound 5a, (1-(2-Chlorophenyl)-1H-1,2,3-triazol-4-yl)methyl 2-(4-isobutylphenyl)propanoate]
- % Inhibition of Edema ± Standard Error ([1]; 1 h): 29.7 ± 1.1%
- % Inhibition of Edema ± Standard Error ([1]; 2 h): 31.3 ± 0.8%
- % Inhibition of Edema ± Standard Error ([1]; 3 h, 10 mg/kg): 95.4% and 95.4 ± 0.7%
- Mean Edema Thickness ([1]; 3 h): 0.033 ± 0.01 mm
- % Inhibition of Edema ± Standard Error ([1]; 4 h): 45.7 ± 1.4%
- % Inhibition of Edema ± Standard Error ([1]; 24 h, 10 mg/kg): 22.5% and 22.5 ± 0.9%
- Mean Edema Thickness ([1]; 24 h): 0.713 ± 0.02 mm
- % Inhibition/Protection [2]: 83.3%
- Writing Reflex ± SE [2]: 6.7 ± 0.7
- % Protection (hot plate latency; after 30 min): 79.2%
- Latency Period ± SE (hot plate latency; after 30 min): 11.97 ± 2.5 s
- % Protection (hot plate latency; after 60 min): 71.5%
- Latency Period ± SE (hot plate latency; after 60 min): 12.47 ± 2.0 s
- % Protection (hot plate latency; after 90 min): 34.5%
- Latency Period ± SE (hot plate latency; after 90 min): 11.98 ± 2.6 s
- % Protection (hot plate latency; after 120 min): 54.5%
- Latency Period ± SE (hot plate latency; after 120 min): 13.92 ± 2.3 s
- Ulcer Index (gastric mucosa): 0
- % Incidence of Ulcer Divided by 10 (gastric mucosa): 0
- Average Severity of Ulcer (gastric mucosa): 0
- Average of Ulcer Number (gastric mucosa): 0
- Number of Animals with Ulcer (gastric mucosa): 0
- toxic symptoms or mortality (mice): No toxic symptoms or mortality
- LPS-stimulated NO production (nitrite) [3]: 17.7 µM
- reduction in IL-6 mRNA levels (IL-6 mRNA): 61.3%
- reduction in iNOS mRNA levels (iNOS mRNA): 34%
- reduction in TNF-α mRNA levels (TNF-α mRNA): 88%

SMILES: CC(C)Cc1ccc(C(C)C(=O)OCc2cn(-c3ccc(Cl)cc3)nn2)cc1 (stereo not shown) [Compound 5b, (1-(4-Chlorophenyl)-1H-1,2,3-triazol-4-yl)methyl 2-(4-isobutylphenyl)propanoate]
- % Inhibition of Edema ± Standard Error ([1]; 1 h): 58.3 ± 0.7%
- % Inhibition of Edema ± Standard Error ([1]; 2 h): 69.6 ± 2.1%
- % Inhibition of Edema ± Standard Error ([1]; 3 h, 10 mg/kg): 94.5% and 94.5 ± 0.4%
- Mean Edema Thickness ([1]; 3 h): 0.040 ± 0.01 mm
- % Inhibition of Edema ± Standard Error ([1]; 4 h): 66.8 ± 1.6%
- % Inhibition of Edema ± Standard Error ([1]; 24 h): 8.4 ± 1.2%
- % Inhibition/Protection [2]: 87.5%
- Writing Reflex ± SE [2]: 5.0 ± 0.9
- % Protection (hot plate latency; after 30 min): 84.1%
- Latency Period ± SE (hot plate latency; after 30 min): 12.30 ± 1.6 s
- % Protection (hot plate latency; after 60 min): 41.3%
- Latency Period ± SE (hot plate latency; after 60 min): 10.27 ± 1.9 s
- % Protection (hot plate latency; after 90 min): 25.0%
- Latency Period ± SE (hot plate latency; after 90 min): 11.14 ± 1.5 s
- % Protection (hot plate latency; after 120 min): 27.1%
- Latency Period ± SE (hot plate latency; after 120 min): 11.45 ± 2.0 s
- Ulcer Index (gastric mucosa): 0
- % Incidence of Ulcer Divided by 10 (gastric mucosa): 0
- Average Severity of Ulcer (gastric mucosa): 0
- Average of Ulcer Number (gastric mucosa): 0
- Number of Animals with Ulcer (gastric mucosa): 0
- toxic symptoms or mortality (mice): No toxic symptoms or mortality
- LPS-stimulated NO production (nitrite) [3]: 4.88 ± 1 µM
- reduction in IL-6 mRNA levels (IL-6 mRNA): 42%
- reduction in TNF-α mRNA levels (TNF-α mRNA): 82%
